Source: patent publication US20040038855A1 (priority 1999, published 2004)
Counter-ions that a name gives are not always drawn. Like-named read-outs stand apart in the source and are kept apart here.

Assays:
human GALR1 receptor = target: T1, human GALR1 receptor (Homo sapiens, UniProt P47211); experiment: Binding affinity at the human GALR1 receptor; details: read-out: hGALR1 Ki
T1 construct: expressed in transfected cells
T1 sequence (P47211 1-349): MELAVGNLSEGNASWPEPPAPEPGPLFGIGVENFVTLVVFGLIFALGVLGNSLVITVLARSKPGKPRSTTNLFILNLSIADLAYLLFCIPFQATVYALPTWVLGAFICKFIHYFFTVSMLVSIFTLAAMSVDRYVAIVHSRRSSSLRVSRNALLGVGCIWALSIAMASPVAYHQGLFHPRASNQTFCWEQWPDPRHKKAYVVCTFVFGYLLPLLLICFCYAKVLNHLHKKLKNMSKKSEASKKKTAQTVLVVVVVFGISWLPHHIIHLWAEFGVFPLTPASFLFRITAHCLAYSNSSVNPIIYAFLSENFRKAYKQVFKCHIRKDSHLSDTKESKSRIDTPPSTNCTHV

human GALR2 receptor = target: T2, human GALR2 receptor (Homo sapiens, UniProt O43603); experiment: Binding affinity at the human GALR2 receptor; details: Table 3a; read-out: hGALR2 Ki
T2 construct: expressed in transfected cells
T2 sequence (O43603 1-387): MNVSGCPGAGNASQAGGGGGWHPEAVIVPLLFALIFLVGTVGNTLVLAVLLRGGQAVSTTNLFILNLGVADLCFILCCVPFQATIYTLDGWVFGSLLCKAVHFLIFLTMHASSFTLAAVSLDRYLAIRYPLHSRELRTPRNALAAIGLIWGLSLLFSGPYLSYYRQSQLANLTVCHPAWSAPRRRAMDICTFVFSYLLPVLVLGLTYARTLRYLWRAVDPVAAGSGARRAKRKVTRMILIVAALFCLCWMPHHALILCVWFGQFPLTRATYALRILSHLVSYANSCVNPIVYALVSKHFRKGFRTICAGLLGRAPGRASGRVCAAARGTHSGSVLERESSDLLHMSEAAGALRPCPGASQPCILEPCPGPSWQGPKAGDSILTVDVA

human GALR3 receptor = target: T3, human GALR3 receptor (Homo sapiens, UniProt O60755); experiment: Binding affinity at the human GALR3 receptor; details: read-out: hGALR3 Ki
T3 construct: expressed in transfected cells
T3 sequence (O60755 1-368): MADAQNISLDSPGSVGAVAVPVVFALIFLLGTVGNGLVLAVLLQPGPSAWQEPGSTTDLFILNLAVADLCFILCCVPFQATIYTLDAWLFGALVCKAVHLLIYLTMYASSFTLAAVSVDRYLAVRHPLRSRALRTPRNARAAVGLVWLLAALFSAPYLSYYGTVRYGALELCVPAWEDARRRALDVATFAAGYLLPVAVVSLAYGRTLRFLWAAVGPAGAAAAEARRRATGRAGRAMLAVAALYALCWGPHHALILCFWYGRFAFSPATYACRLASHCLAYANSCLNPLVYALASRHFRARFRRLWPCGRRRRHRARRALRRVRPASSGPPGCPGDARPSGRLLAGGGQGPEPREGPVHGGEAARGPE

rat 5HT2C receptor = target: T4, rat 5HT2C receptor (Rattus norvegicus, UniProt P08909); experiment: Binding affinity at the rat 5HT2C receptor; details: Table 3a; read-out: r5HT2C Ki
T4 construct: expressed in transfected cells
T4 sequence (P08909 33-460): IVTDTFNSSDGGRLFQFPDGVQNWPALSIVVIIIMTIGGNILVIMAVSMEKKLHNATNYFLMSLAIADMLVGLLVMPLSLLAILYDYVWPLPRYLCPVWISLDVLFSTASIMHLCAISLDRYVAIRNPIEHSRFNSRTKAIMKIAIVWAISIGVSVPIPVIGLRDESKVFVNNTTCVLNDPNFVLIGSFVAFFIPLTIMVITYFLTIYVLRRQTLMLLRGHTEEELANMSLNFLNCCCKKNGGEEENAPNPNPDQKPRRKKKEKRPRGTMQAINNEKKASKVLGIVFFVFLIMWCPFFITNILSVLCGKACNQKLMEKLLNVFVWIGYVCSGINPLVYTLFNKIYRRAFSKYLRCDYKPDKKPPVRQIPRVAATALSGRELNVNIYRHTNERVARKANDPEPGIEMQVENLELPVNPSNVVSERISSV
Method in brief: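 Affinity measured by a literature binding protocol using rat 5HT2C cDNA expressed heterologously.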

human MCH1 receptor [1] = target: T5, human MCH1 receptor (Homo sapiens, UniProt Q99705); experiment: Competition binding, membrane preparations of A293 cells expressing the human MCH1 receptor, [3H] Compound 10 as radioligand; set-up: expressed in transfected cells; details: Table 3b; A293 cell membranes, [3H] Compound 10; read-out: hMCH1* Ki
Description: TRITIATED METHYL (4S)-3-{[(3-{4-[3-(ACETYLAMINO)PHENYL]-1-[…]}PROPYL)AMINO]CARBONYL}-4-(3,4-DIFLUOROPHENYL)-6-(METHOXYMETHYL)-2-OXO-1,2,3,4-TETRAHYDRO-5-PYRIMIDINECARBOXYLATE ([^3H] COMPOUND 10): This radiochemical synthesis was carried out by Amersham Pharmacia Biotech, Cardiff, Wales. A methanolic solution of methyl (4S)-3-({[3-(4-[3-(acetylamino)phenyl]-3,6-dihydro-1(2H)pyridinyl)propyl]amino}carbonyl)-4-(3,4-difluorophenyl)-6-(methoxymethyl)-2-oxo-1,2,3,4-tetrahydro-5-pyrimidinecarboxylate was exposed to tritium gas at 1 atmosphere pressure in the presence of 5% palladium on carbon with stirring overnight to give the tritiated methyl (4S)-3-{[(3-{4-[3-(acetylamino)phenyl]-1-piperidinyl}propyl)amino]carbonyl}-4-(3,4-difluorophenyl)-6-(methoxymethyl)-2-oxo-1,2,3,4-tetrahydro-5-pyrimidinecarboxylate ((+)-isomer) After purification by reverse phase HPLC (Hypersil ODS, 4.6×100 mm, methanol:H2O:Et3N 10:90:1 to 100:0:1 in 15 min at 1.0 mL/min, with radiochemical and UV detection), this product was used as a radioligand in the MCH1 binding assays. The same procedure was carried out with H2 gas in place of ^3H2 to afford the non-radioactive version of Compound 10.

human MCH1 receptor [2] = target: T5, human MCH1 receptor; experiment: Intracellular calcium response to MCH in COS-7 cells transfected with MCH1 (fluo-3, FLIPR): antagonist potency; type: cell-based; set-up: expressed in transfected cells; host or cells: COS-7; details: read-out: Kb (nM) hMCH1
Text: MCH1 antagonist compounds were identified by their ability to inhibit the MCH-elicited response. […]. From the IC50 values, the antagonist potency (Kb)was derived using the Cheng-Prussof correction (Lazareno and Birdsall, 1993). […]

rat MCH1 receptor = target: T6, rat MCH1 receptor (Rattus norvegicus, UniProt P97639); experiment: Binding affinity (Ki) at the rat MCH1 receptor
T6 construct: expressed in transfected cells

[3] = target: T7, human Dopamine D2 receptor (Homo sapiens, UniProt P14416); experiment: Binding affinity at the human dopamine D2 receptor; details: Table 3c; read-out: hD2 Ki
T7 construct: purchased BioSignal, Inc. (Montreal, Canada)
Method in brief: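 Cell membranes carrying the recombinant human dopamine D1 or D2 receptor served as the binding source. The adrenergic α2A and dopamine D5 measurements used receptor binding protocols.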

[4] = target: T8, human Histamine H1 receptor (Homo sapiens, UniProt P35367); experiment: Binding affinity at the human histamine H1 receptor; details: Table 3c; read-out: hH1 Ki
T8 construct: expressed in transfected cells
Method in brief: (§1)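 Receptor binding read-out throughout; membranes expressing human D1 or D2 receptor were used for those two targets.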

[5] = target: T9, human Alpha-1a Adrenergic receptor (Homo sapiens, UniProt P35348); experiment: Binding affinity at the human alpha-1A adrenergic receptor; details: Table 3c; read-out: hAlpha-1a Ki
T9 construct: expressed in transfected cells
T9 sequence (P35348 1-466): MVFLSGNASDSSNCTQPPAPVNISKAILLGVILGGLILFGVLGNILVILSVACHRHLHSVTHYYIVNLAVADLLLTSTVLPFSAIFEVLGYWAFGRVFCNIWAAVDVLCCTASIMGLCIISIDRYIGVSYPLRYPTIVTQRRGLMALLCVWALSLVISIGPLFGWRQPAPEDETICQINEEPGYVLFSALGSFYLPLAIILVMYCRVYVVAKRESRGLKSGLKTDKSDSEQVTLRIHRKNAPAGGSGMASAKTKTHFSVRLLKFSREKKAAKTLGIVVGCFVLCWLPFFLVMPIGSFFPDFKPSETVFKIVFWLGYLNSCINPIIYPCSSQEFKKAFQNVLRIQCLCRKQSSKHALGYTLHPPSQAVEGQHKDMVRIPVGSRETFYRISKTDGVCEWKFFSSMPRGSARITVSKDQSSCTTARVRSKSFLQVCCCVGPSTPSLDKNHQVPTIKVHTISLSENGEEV
Method in brief: as §1

[6] = tested on: micturition reflex, conscious male Sprague Dawley rats; experiment: Continuous Slow Transvesicular Infusion (CSTI) rat model; type: in vivo; set-up: key to Effect of MCH1 antagonist in the CSTI model: B = Produced an increase in bladder capacity in rats relative to baseline capacity; details: bladder capacity, intragastric
Description: The effects of compounds on the micturition reflex were assessed in the “distension-induced rhythmic contraction” (DIRC), as described in previous publications (e.g. Maggi et al, 1987; Morikawa et al, 1992), and Continuous Slow Transvesicular Infusion (CSTI) models in rats. Male Sprague Dawley rats weighing approximately 300 g were used for the study. Rats were anaesthetized with pentobarbitone sodium (50 mg/kg, i.p). Through a median abdominal incision, bladder was exposed and a polyethylene cannula (PE 50) was introduced into the bladder through a small cut on the dome of the bladder and the cannula was secured with a purse string suture. The other end of the cannula was exteriorized subcutaneously at the dorsal neck area. Similarly, another cannula (PE 50) was introduced into the stomach through a paramedian abdominal incision with the free end exteriorized subcutaneously to the neck region. The surgical wounds were closed with silk 4-0 suture and the animal was allowed to recover with appropriate post surgical care. On the following day, the animal was placed in a rat restrainer. The open end of the bladder cannula was connected to a pressure transducer as well as infusion pump through a three-way stopcock. The bladder voiding cycles were initiated by continuous infusion of normal saline at the rate of 100 ul/min. The repetitive voiding contractions were recorded on a Power Lab on-line data acquisition software. After recording the basal voiding pattern for an hour, the test drug or vehicle was administered directly into stomach through the intragastric catheter and the voiding cycles were monitored for 5 hours. Micturition pressure and frequency were calculated before and after the treatment (at every 30 min interval) for each animal. Bladder capacity was calculated from the micturition frequency, based on the constant infusion of 100 ul/min. The effect of the test drug was expressed as a percentage of basal, pre-drug bladder capacity. WAY 100635 was used as positive control for comparison.

[7] = Examples 38-141, read-out: Ki (nM) rMCH1
[8] = Examples 142-153, read-out: Ki (nM) rMCH1

T8 sequence (P35367 whole entry): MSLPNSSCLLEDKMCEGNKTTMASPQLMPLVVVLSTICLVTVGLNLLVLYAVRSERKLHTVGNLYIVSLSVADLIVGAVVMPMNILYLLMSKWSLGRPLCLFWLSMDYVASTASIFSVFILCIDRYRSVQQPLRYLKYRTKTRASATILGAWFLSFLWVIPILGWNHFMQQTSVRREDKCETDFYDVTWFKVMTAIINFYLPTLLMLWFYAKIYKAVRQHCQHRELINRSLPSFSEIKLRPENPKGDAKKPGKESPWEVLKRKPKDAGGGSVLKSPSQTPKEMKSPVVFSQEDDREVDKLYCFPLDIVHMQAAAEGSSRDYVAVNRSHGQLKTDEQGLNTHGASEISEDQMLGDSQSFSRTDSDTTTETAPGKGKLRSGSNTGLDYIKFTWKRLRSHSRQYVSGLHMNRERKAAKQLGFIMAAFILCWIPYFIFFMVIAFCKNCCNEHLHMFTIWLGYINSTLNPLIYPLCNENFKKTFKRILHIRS
T7 sequence (P14416 whole entry): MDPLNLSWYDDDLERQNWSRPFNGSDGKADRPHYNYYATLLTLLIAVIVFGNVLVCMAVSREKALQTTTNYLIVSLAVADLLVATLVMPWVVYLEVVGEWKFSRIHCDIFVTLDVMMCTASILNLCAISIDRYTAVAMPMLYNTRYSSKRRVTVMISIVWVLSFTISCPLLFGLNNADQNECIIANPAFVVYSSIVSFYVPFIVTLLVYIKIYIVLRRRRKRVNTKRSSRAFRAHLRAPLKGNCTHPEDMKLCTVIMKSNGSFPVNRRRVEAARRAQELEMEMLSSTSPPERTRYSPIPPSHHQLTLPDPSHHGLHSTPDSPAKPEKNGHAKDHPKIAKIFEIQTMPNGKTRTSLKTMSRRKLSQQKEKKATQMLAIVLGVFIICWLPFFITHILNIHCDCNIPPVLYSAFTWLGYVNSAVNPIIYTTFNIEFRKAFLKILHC
T6 sequence (P97639 whole entry): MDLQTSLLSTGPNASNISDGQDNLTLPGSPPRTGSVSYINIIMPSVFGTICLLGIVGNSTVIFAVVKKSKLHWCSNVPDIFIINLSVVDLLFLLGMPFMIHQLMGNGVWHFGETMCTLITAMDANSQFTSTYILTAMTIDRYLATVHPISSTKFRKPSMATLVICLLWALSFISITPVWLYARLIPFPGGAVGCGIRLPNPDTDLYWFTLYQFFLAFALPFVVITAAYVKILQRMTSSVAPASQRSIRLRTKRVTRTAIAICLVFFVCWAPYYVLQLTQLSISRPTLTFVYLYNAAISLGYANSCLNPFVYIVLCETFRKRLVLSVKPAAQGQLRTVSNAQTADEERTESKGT
T5 sequence (Q99705 whole entry): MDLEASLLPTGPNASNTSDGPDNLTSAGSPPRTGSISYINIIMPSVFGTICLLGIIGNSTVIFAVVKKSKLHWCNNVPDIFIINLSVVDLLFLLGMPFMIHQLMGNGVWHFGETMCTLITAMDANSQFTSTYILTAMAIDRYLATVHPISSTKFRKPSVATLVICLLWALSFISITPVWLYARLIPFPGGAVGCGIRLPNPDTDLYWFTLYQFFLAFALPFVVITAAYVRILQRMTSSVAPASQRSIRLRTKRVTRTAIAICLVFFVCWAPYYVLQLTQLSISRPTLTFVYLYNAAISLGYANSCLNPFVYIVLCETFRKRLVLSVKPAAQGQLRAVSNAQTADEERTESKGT

Row | Ki (rat MCH1 receptor; [7]) [nM] | Ki (rat MCH1 receptor; Table 3c, read-out: rMCH1 Ki) [nM] | Ki [3] [nM] | Ki [4] [nM] | Ki [5] [nM] | Structure (SMILES) | Effect of MCH1 antagonist in the CSTI model [6] | Ki (rat MCH1 receptor; [8]) [nM] | also measured
1 | 0.23 | 0.23 | 3570 | 10800 | 21.9 | COCC1=C(C(=O)OC)[C@H](c2ccc(F)c(F)c2)N(C(=O)NCCCN2CCC(c3cccc(NC(=O)C(C)C)c3)CC2)C(=O)N1 [Example 43, METHYL (4S)-4-(3,4-DIFLUOROPHENYL)-3-{[(3-{4-[3-(ISOBUTYRYLAMINO)PHENYL]-1-PIPERIDINYL}PROPYL)AMINO]CARBONYL}-6-(METHOXYMETHYL)-2-OXO-1,2,3,4-TETRAHYDRO-5-PYRIMIDINECARBOXYLATE] | B | – | –
2 | 2.8 | 2.8 | 862 | 461 | 19.4 | CC(C)C(=O)Nc1cccc(C2CCN(CCCC(=O)c3ccc(Cl)cc3)CC2)c1 [Example 66] | B | – | –

Further lines, the molecule ahead of its results:

Row | Structure (SMILES) | Ki (rat MCH1 receptor; [7]) [nM] | Ki (rat MCH1 receptor; Table 3c, read-out: rMCH1 Ki) [nM] | Ki [3] [nM] | Ki [4] [nM] | Ki [5] [nM] | Effect of MCH1 antagonist in the CSTI model [6] | Ki (rat MCH1 receptor; [8]) [nM] | also measured
3 | COCC1=C(C(=O)OC)C(c2ccc(F)c(F)c2)N(C(=O)NCCCN2CCC(c3cccc4ccccc34)CC2)C(=O)N1 (single isomer, unassigned; (+)) [Example 14, (+)-1,2,3,6-TETRAHYDRO-1-{N-[4-(1-NAPHTHYL)-PIPERIDIN-1-YL]PROP-YL}CARBOXAMIDO-4-METHOXYMETHYL-6-(3,4-DIFLUOROPHENYL)-2-OXO-PYRIMIDINE-5-CARBOXYLIC ACID METHYL ESTER] | – | – | – | – | – | – | – | Ki (human GALR1 receptor; Table 3a): > 50000 nM; Ki (human GALR1 receptor; Table 3b): > 50000 nM; Ki (human GALR2 receptor): 42600 nM; Ki (human GALR3 receptor; Table 3a): > 50000 nM; Ki (human GALR3 receptor; Table 3b): > 50000 nM; Ki (rat 5HT2C receptor): 663 nM; melting point: 168 to 172 °C; Ki (human MCH1 receptor [1]): 50 nM; Kb (human MCH1 receptor [2]): 2 nM
4 | Cc1ccc(C(=O)CCCN2CCC(c3cccc(NC(=O)C(C)C)c3)CC2)cc1C [Example 58] | 3.9 | 3.9 | 2840 | 700 | 32.1 | B | – | –
5 | COc1ccc2[nH]c(-c3ccccc3)c(CCCN3CCC(c4cccc(NC(=O)C(C)C)c4)CC3)c2c1 [Example 147] | – | – | – | – | – | B | 2.3 | –
6 | CCn1c2ccccc2c2cc(CN3CCC(c4cccc(NC(=O)C(C)C)c4)CC3)ccc21 [Example 148] | – | – | – | – | – | B | 1.7 | –
7 | Cc1ccc(NC(=O)C(C)C)cc1C1CCN(Cc2ccc(Oc3ccc(F)c(F)c3)cc2)CC1 [Example 152] | – | – | – | – | – | B | 2.2 | –
8 | CC(C)C(=O)Nc1cccc(C2CCN(CCCNC(=O)C(c3ccccc3)c3ccccc3)CC2)c1 [Example 153] | – | – | – | – | – | B | 2.9 | –
9 | CC(=O)C1=C(C)NC(=O)N(C(=O)NCCCN2CCC(c3cccc(NC(=O)C(C)C)c3)CC2)[C@H]1c1cc(F)c(F)c(F)c1 [Example 155, (+)-5-ACETYL-N-(3-{4-[3-(ISOBUTYRYLAMINO)PHENYL]-1-PIPERIDINYL}PROPYL)-4-METHYL-2-OXO-6-(3,4,5-TRIFLUOROPHENYL)-3,6-DIHYDRO-1(2H)-PYRIMIDINECARBOXAMIDE. HYDROCHLORIDE SALT] | – | – | – | – | – | B | – | –
